Data as given in US20210255193A1, “LYSINE REACTIVE PROBES AND USES THEREOF” (The Scripps Research Institute, priority 2017, published 2021).

Assays:
[1] = molecular target: T1, FECH Ferrochelatase, mitochondrial (Homo sapiens, UniProt P22830); assay: competitive isoTOP-ABPP; type: binding; settings: for isoTOP-ABPP ratio (R) at liganded lysine P22830_K304: sol, 231
T1 construct: isoTOP-ABPP experiments performed in cell lysates (in vitro); endogenous in cells; host or cells: soluble proteome of human cancer cell lines (MDA-MB-231; Ramos and Jurkat also prepared)
T1 sequence (P22830 55-423): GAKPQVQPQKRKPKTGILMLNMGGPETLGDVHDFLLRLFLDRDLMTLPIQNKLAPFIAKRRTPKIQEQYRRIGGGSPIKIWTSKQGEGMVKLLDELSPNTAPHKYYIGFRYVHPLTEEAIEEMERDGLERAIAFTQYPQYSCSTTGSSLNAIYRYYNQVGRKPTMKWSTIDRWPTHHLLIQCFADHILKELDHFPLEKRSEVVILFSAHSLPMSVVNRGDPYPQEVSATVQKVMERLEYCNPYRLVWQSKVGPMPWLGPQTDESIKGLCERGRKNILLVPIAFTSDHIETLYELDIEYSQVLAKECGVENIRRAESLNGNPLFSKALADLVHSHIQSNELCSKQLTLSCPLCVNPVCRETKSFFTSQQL
Procedure: (§1) In vitro covalent fragment treatment for isoTOP-ABPP. All compounds were made up as solutions in DMSO (100×) and were used at a final concentration of 50 μM for activated esters and 100 μM for guanidinylating agents. For each profiling sample, 0.5 ml of lysate was treated with 5 μl of the 100× compound stock solution or 5 μl of DMSO. Samples were treated with activated esters for
(§2) STP-alkyne labeling and click chemistry. For concentration-dependent reactivity measurements by isoTOP-ABPP, 0.5 ml proteome aliquots were treated at ambient temperature with 1 mM STP-alkyne 1 (5 μl of 100 mM stock in DMSO) and 0.1 mM STP alkyne 1 (5 μl of 10 mM stock in DMSO), respectively. For competitive isoTOP-ABPP, after in vitro fragment treatment (detailed above), the samples were labeled for 1 h at ambient temperature with 0.1 mM STP-alkyne 1 (5 μl of 10 mM stock in DMSO). Samples were conjugated by copper-mediated azide-alkyne cycloaddition (CuAAC) to either the light (1 mM STP-alkyne or fragment treated) or heavy (0.1 mM STP-alkyne or DMSO treated) TEV tags (10 μl of 5 mM stocks in DMSO, final concentration=100 μM) using tris(2-carboxyethyl)phosphine hydrochloride
(§3) R value calculation and processing. The ratios of light and heavy MS1 peaks for each unique peptide were quantified with a CIMAGE software using default parameters (3 MS1 acquisitions per peak and signal to noise threshold set to 2.5). For reactivity measurements by isoTOP-ABPP, the R value was calculated from the ratio of MS1 peak areas, comparing the 1 mM STP alkyne sample (light TEV tag) with the 0.1 mM STP alkyne sample (heavy TEV tag). For competitive isoTOP-ABPP, the R value was calculated from the ratio of MS1 peak areas, comparing the DMSO treated sample (heavy TEV tag) with the compound treated sample (light TEV tag). […] Ratios for unique peptide entries are calculated for each experiment; overlapping peptides with the same modified lysine (for example, different charge states, MudPIT chromatographic steps or tryptic termini) are grouped together and the median ratio is reported as the final ratio (R). The peptide ratios reported by CIMAGE were further filtered to ensure the removal or correction of low-quality ratios in each individual data set. The quality filters applied were the following: removal of half tryptic peptides; for ratios with high standard deviations from the median (90% of the median or above) the lowest ratio was taken instead of the median; removal of peptides with R=20 and only a single MS2 event triggered during the elution of the parent ion; manual annotation of all the peptides with ratios of 20, removing any peptides with low quality elution profiles that remained after the previous curation steps (only done for competitive isoTOP-ABPP).
(§4) Cross-data processing for fragment screening. For compound treated samples, biological replicates of the same condition were averaged, if the standard deviation was below 60% of the mean; otherwise, for lysines with at least one R value <4 for a particular compound, the lowest value of the ratio set was taken. For lysines, where all R values for a particular compound were ≥4, the average was reported. For peptides containing several possible modified lysines, the lysine with the highest number of quantification events was used for analysis and the remaining, redundant peptides were reported as alternative modification sites. Peptides included in the aggregate dataset (those used for further bioinformatics and statistical analyses) were required to have been quantified in 2 experiments for competitive isoTOP-ABPP. Lysines were categorized as liganded, if they had at least one ratio R≥4 (hit fragments). For liganded lysines with R=20 for all liganding events, lysines were required to have been quantified with R=20 in two separate experiments and were further required to have been quantified with R<20 in one additional experiment.

[2] = molecular target: T2, PFKP 6-phosphofructokinase type C (Homo sapiens, UniProt Q01813); assay: competitive isoTOP-ABPP; type: binding; parameters: key to isoTOP-ABPP reactivity ratio at lysine Q01813_K688: R = MS1 peak area ratio, DMSO (heavy) / compound-treated (light); settings: for isoTOP-ABPP ratio (R) at liganded lysine Q01813_K688: sol, 231
T2 construct: isoTOP-ABPP experiments performed in cell lysates (in vitro); endogenous in cells
T2 sequence (Q01813 1-784): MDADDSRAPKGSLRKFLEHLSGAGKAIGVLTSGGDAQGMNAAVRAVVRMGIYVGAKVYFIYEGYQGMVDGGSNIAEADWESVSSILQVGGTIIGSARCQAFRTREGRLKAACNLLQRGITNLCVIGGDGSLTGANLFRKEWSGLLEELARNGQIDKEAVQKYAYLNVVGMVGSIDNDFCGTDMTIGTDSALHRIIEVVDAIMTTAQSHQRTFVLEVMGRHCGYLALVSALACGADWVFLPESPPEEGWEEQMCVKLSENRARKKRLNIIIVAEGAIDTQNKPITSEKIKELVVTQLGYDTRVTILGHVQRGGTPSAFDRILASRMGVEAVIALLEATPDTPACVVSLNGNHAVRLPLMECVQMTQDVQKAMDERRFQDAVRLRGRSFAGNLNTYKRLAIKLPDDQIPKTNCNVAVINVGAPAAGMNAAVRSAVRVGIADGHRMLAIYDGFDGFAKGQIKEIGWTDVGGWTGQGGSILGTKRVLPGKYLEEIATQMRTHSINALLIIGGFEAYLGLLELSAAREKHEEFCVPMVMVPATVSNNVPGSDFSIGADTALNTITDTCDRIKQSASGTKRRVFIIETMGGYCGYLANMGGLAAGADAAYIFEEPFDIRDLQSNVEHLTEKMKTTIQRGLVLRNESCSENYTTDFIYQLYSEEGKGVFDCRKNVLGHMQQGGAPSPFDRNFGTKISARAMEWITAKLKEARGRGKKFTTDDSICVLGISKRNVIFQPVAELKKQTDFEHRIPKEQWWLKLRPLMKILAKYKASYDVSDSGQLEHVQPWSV
Procedure: as §1, §2, §3, §4

Row | Compound | isoTOP-ABPP ratio (R) at liganded lysine P22830_K304 ([1]; 50 uM, in vitro) | isoTOP-ABPP ratio (R) at liganded lysine Q01813_K688 ([2]; 50 uM, in vitro) | isoTOP-ABPP ratio, lysine P22830_K304 ([1]; 50 uM_231_sol_in vitro) | isoTOP-ABPP ratio, lysine Q01813_K688 ([2]; 50 uM_231_sol_in vitro) | also measured
1 | COc1cc(CCC(=O)Oc2ccc([N+](=O)[O-])cc2[N+](=O)[O-])cc(OC)c1OC [fragment 33, 2,4-Dinitrophenyl 3-(3,4,5-trimethoxyphenyl)propanoate] |  |  |  |  | isoTOP-ABPP reactivity ratio at lysine P22830_K304 ([1]; 50 uM, 231 sol, in vitro): 1.7; isoTOP-ABPP reactivity ratio at lysine Q01813_K688 ([2]; 50 uM, 231 sol, in vitro): 20.0
2 | O=C(CCc1coc2cc(F)ccc2c1=O)Oc1ccc([N+](=O)[O-])cc1[N+](=O)[O-] [fragment 36, 2,4-Dinitrophenyl 3-(7-fluoro-4-oxo-4H-chromen-3-yl)propanoate] | 2.0 | 20.0 |  |  | 
3 | O=C(CC12CC3CC(CC(C3)C1)C2)Oc1ccc([N+](=O)[O-])cc1[N+](=O)[O-] [fragment 38, 2,4-Dinitrophenyl 2-(adamantan-1-yl)acetate] | 1.8 | 4.1 |  |  | 
4 | O=C(Oc1ccc([N+](=O)[O-])cc1[N+](=O)[O-])c1ccc(Oc2ccccc2)cc1 [fragment 39, 2,4-Dinitrophenyl 4-phenoxybenzoate] | 1.3 | 1.0 |  |  | 
5 | O=C(Oc1ccc([N+](=O)[O-])cc1[N+](=O)[O-])C(c1ccccc1)(c1ccccc1)c1ccccc1 [fragment 42, 2,4-Dinitrophenyl 2,2,2-triphenylacetate] | 1.0 | 1.0 |  |  | 
6 | CC(=O)Oc1ccc([N+](=O)[O-])cc1[N+](=O)[O-] [fragment 43, 2,4-Dinitrophenyl acetate] | 1.3 | 3.9 |  |  | 
7 | N#Cc1ccc(C(=O)Oc2ccc([N+](=O)[O-])cc2[N+](=O)[O-])cc1 [fragment 44, 2,4-Dinitrophenyl 4-cyanobenzoate] |  |  | 1.1 | 4.2 | 
8 | O=C(CCc1ccc2c(c1)OCO2)Oc1ccc([N+](=O)[O-])cc1[N+](=O)[O-] [fragment 45, 2,4-Dinitrophenyl 3-(benzo[d][1,3]dioxol-5-yl)propanoate] |  |  | 1.4 | 20.0 | 
9 | O=C(ON1C(=O)CCC1=O)c1cc(C(F)(F)F)cc(C(F)(F)F)c1 [fragment 46, 3,5-Bis(trifluoromethyl)benzoic acid NHS ester] |  |  | 0.9 | 1.7 | 
10 | O=C(Oc1c(F)c(F)c(C(F)(F)F)c(F)c1F)c1cc(C(F)(F)F)cc(C(F)(F)F)c1 [fragment 47, 2,3,5,6-Tetrafluoro-4-(trifluoromethyl)phenyl 3,5-bis(trifluoromethyl)benzoate] |  |  | 2.2 | 1.0 | 
11 | O=C(Oc1c(F)c(F)cc(F)c1F)c1cc(C(F)(F)F)cc(C(F)(F)F)c1 [fragment 48, 2,3,5,6-Tetrafluorophenyl 3,5-bis(trifluoromethyl)benzoate] |  |  | 1.1 | 1.4 | 
12 | COC(=O)NC(=NC(=O)OCC1c2ccccc2-c2ccccc21)n1cccn1 [fragment 49, N-Methoxycarbonyl-N′-9-fluorenylmethoxycarbonyl-pyrazole-1-carboxamidine] |  |  |  |  | isoTOP-ABPP ratio, lysine P22830_K304 ([1]; 100 uM_231_sol_in vitro): 5.3; isoTOP-ABPP ratio, lysine Q01813_K688 ([2]; 100 uM_231_sol_in vitro): 9.6
13 | CC(C)(C)OC(=O)N=C(NC(=O)OC(C)(C)C)n1cccn1 [fragment 50, reference compound] |  |  |  |  | isoTOP-ABPP ratio, lysine P22830_K304 ([1]; 100 uM_231_sol_in vitro): 2.3; isoTOP-ABPP ratio, lysine Q01813_K688 ([2]; 100 uM_231_sol_in vitro): 18.2
14 | NC(=O)c1cc(C(F)(F)F)cc(C(F)(F)F)c1 [fragment 51, reference compound] |  |  | 0.8 | 0.9 | 
